What was measured:
experimental colitis = tested on: experimental colitis; parameters: method as in Borrelli et al., 2013; conditions: model of inflammatory bowel disease; ref Borrelli et al., 2013; cited from earlier work
human CB1 receptor = biological target: T1, human CB1 receptor (Homo sapiens, UniProt P21554); assay: biochemical; format: binding; conditions: radioligand 0.3 nM [3H]-CP-55940, CHO membranes
T1 construct: expressed in transfected cells; membranes

5HT1A receptor = tested on: 5HT1A receptor; parameters: method as in Cascio et al., 2010; conditions: stimulation by 1 μM 8-OH-DPAT; ref Cascio et al., 2010; cited from earlier work
[1] = tested on: T2, CB1R and CB2R (CB1–CB2 heteroreceptor complexes); assay: β-arrestin 2 recruitment (BRET) in HEK-293T cells co-expressing both receptors; format: cell-based, human
T2 construct: expressed in transfected cells; host or cells: HEK-293T, transient co-transfection (PEI)
Method: (§1) HEK-293T cells were grown in DMEM medium (Gibco, Paisley, Scotland, United Kingdom) supplemented with 2 mM L-glutamine, 100 U/mL penicillin/streptomycin, MEM Non-Essential Amino Acids Solution (1/100) and 5% (v/v) heat inactivated Foetal Bovine Serum (FBS) (Invitrogen, Paisley, Scotland, United Kingdom). […] Cells were transiently transfected with the PEI (Polyethylenimine, Sigma, St. Louis, MO, United States) method as previously described ([Medrano et al., 2017]; [Navarro et al., 2018b]) and used for functional assays 48 h later (unless otherwise stated).
Arrestin recruitment was determined as previously described ([Medrano et al., 2017]; [Navarro et al., 2018b]). Briefly, BRET experiments were performed in HEK-293T cells 48 h after transfection with the cDNA corresponding to the CB2R-YFP or CB1R-YFP and 1 μg cDNA corresponding to β-arrestin 2-Rluc. […] After 1 min of adding coelenterazine H, BRET between β-arrestin 2-Rluc and receptor-YFP was determined and quantified. The readings were collected using a Mithras LB 940 (Berthold Technologies, Bad Wildbad, Germany) that allows the integration of the signals detected in the short-wavelength filter at 485 nm and the long-wavelength filter at 530 nm. To quantify protein-RLuc expression luminescence readings were also performed 10 min of adding 5 μM coelenterazine H.

mouse brain membranes = tested on: mouse brain membranes; parameters: method as in Cascio et al., 2010; conditions: 10 μM CBG, mouse brain membranes treated with AEA or CP-55940; ref Cascio et al., 2010; cited from earlier work
TRPV1 = tested on: TRPV1; parameters: method as in De Petrocellis et al., 2011; conditions: ref De Petrocellis et al., 2011; read-out: EC50, agonist of TRPV1; cited from earlier work
CB2R [2] = tested on: T3, CB2R; assay: ERK1/2 phosphorylation in HEK-293T cells; format: cell-based, human
T3 construct: expressed in transfected cells; host or cells: HEK-293T, transient transfection (PEI)
Method: as §1
(§2) To determine ERK1/2 phosphorylation, 50,000 HEK-293T cells/well were plated in transparent Deltalab 96-well microplates and kept at the incubator for 24 h. 2 to 4 h before the experiment, the medium was substituted by serum-starved DMEM medium. Then, cells were pre-treated at 25°C for 10 min with vehicle or CBG in serum-starved DMEM medium and stimulated for an additional 7 min with the specific agonists. Cells were then washed twice with cold PBS before addition of lysis buffer (20 min treatment). 10 μL of each supernatant were placed in white ProxiPlate 384-well microplates and ERK 1/2 phosphorylation was determined using AlphaScreen®SureFire® kit (Perkin Elmer) following the instructions of the supplier and using an EnSpire® Multimode Plate Reader (PerkinElmer, Waltham, MA, United States).

CB1R [3] = tested on: T4, CB1R; assay: ERK1/2 phosphorylation in HEK-293T cells; format: cell-based, human
T4 construct: expressed in transfected cells; host or cells: HEK-293T, transient transfection (PEI)
Method: as §1, §2

[4] = tested on: T2, CB1R and CB2R (CB1–CB2 heteroreceptor complexes); assay: cAMP determination in HEK-293T cells co-expressing both receptors; format: cell-based, human
Method: as §1
Signaling experiments have been performed as previously described ([Navarro et al., 2010], [2016], [2018b]; [Hinz et al., 2018]). Two hours before initiating the experiment, HEK-293T cell-culture medium was replaced by serum-starved DMEM medium. Then, cells were detached, resuspended in growing medium containing 50 μM zardaverine and placed in 384-well microplates (2,500 cells/well). Cells were pretreated (15 min) with CBG -or vehicle- and stimulated with agonists (15 min) before adding 0.5 μM forskolin or vehicle. Readings were performed after 15 min incubation at 25°C. […] Fluorescence at 665 nm was analyzed in a PHERAstar Flagship microplate reader equipped with an HTRF optical module (BMG Lab Technologies, Offenburg, Germany).

[5] = biological target: T5, CB2R in a CB1–CB2 receptor heteromer context (Homo sapiens, UniProt P34972); assay: Homogeneous HTRF competition binding in living HEK-293T cells expressing SNAP-CB2R and CB1R; conditions: 20 nM fluorescent ligand, read-out: Ki, HTRF competition of fluorophore-conjugated CM-157 in the presence of CB1R
T5 construct: host or cells: HEK-293T, transient co-transfection (PEI)

CB2R [6] = tested on: T3, CB2R; assay: cAMP determination in HEK-293T cells; format: cell-based, human
Method: as §1
(§3) Signaling experiments have been performed as previously described ([Navarro et al., 2010], [2016], [2018b]; [Hinz et al., 2018]). Two hours before initiating the experiment, HEK-293T cell-culture medium was replaced by serum-starved DMEM medium. Then, cells were detached, resuspended in growing medium containing 50 μM zardaverine and placed in 384-well microplates (2,500 cells/well). Cells were pretreated (15 min) with CBG -or vehicle- and stimulated with agonists (15 min) before adding 0.5 μM forskolin or vehicle. Readings were performed after 15 min incubation at 25°C. HTRF energy transfer measures were performed using the Lance Ultra cAMP kit (PerkinElmer, Waltham, MA, United States). Fluorescence at 665 nm was analyzed in a PHERAstar Flagship microplate reader equipped with an HTRF optical module (BMG Lab Technologies, Offenburg, Germany).

CB1R [7] = tested on: T4, CB1R; assay: cAMP determination in HEK-293T cells; format: cell-based, human
Method: as §1, §3

[8] = tested on: T2, CB1R and CB2R (CB1–CB2 heteroreceptor complexes); assay: ERK1/2 phosphorylation in HEK-293T cells co-expressing both receptors; format: cell-based, human
Method: as §1, §2

TRPV2 = tested on: TRPV2; parameters: method as in De Petrocellis et al., 2011; conditions: ref De Petrocellis et al., 2011; read-out: EC50, agonist of TRPV2; cited from earlier work
[9] = 100 nM CBG pretreatment, cells co-expressing CB1R and CB2R
[10] = CBG alone, dose-effect, cells expressing CB1R and CB2R
[11] = 100 nM or 1 μM CBG pretreatment, 100 nM AEA or JWH133, CB2R
[12] = CBG alone, 1 nM to 10 μM, CB2R-expressing cells
[13] = CBG alone, 1 nM to 10 μM, CB1R-expressing cells

T5 sequence (P34972 whole entry): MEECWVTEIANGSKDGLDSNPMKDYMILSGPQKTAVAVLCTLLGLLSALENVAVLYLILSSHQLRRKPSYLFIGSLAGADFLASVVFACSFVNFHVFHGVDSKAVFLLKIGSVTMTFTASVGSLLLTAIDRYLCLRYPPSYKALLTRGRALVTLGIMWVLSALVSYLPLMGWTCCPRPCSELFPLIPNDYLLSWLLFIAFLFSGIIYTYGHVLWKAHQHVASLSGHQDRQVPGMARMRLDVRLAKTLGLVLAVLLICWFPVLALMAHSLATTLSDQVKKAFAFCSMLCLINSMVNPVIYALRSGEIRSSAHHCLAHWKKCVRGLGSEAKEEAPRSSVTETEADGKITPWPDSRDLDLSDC
T5 sequence (P21554 whole entry partner): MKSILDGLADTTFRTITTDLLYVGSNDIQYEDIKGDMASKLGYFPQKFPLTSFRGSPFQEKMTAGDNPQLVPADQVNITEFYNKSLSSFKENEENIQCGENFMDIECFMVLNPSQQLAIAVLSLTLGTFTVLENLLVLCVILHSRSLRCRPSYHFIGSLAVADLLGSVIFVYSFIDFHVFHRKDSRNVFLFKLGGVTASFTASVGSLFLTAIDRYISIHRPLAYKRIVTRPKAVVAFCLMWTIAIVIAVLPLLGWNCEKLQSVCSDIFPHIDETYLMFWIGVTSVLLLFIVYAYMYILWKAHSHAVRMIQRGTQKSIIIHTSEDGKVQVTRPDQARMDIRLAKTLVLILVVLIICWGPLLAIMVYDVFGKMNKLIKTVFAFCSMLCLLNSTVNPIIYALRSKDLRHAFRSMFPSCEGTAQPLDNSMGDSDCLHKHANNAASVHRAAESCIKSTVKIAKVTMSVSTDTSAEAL
T1 sequence (P21554 whole entry): as the sequence (P21554 whole entry partner) above

CCCCCc1cc(O)c(C/C=C(\C)CCC=C(C)C)c(O)c1 [CBG, cannabigerol]
Effect on experimental colitis (experimental colitis): reduce the histological and molecular changes of experimental colitis
Ki (human CB1 receptor): 1050 nM
Effect on [35S]GTPγS binding upon 5HT1A stimulation (5HT1A receptor): able to antagonize
Effect on agonist actions on β-arrestin recruitment [1, 9]: negligible
β-arrestin recruitment [1, 10]: negative cross-talk was still evident
Effect on [35S]GTPγS binding (mouse brain membranes): antagonized
EC50 (TRPV1): 1300 nM
Effect on AEA and JWH133 effects on ERK1/2 phosphorylation (CB2R [2]; [11]): reduced the effects of AEA and JWH133
Activation of the MAP kinase pathway (CB2R [2]; [12]): notable
Effect on agonist-induced MAPK phosphorylation (CB1R [3]; 100 nM or 1 μM CBG, 100 nM AEA or ACEA, CB1R): unable to modify
Effect on MAPK phosphorylation (CB1R [3]; [13]): no significant action
Effect on AEA, ACEA and/or JWH133 actions in cAMP-related assays [4, 9]: significant effects, always reducing the effect of the agonists
Effect on cAMP level [4, 10]: additive
Ki [5]: 56 nM
Effect on AEA and JWH133 effects on forskolin-induced cAMP levels (CB2R [6]; [11]): reduced the effects of AEA and JWH133
Effect on forskolin-induced cAMP levels (CB2R [6]; [12]): small and similar to that exerted in CB1R-expressing cells
Effect on AEA and ACEA induced effects on forskolin-induced cAMP (CB1R [7]; 100 nM or 1 μM CBG pretreatment, 100 nM AEA or ACEA, CB1R): significant decrease
Effect on forskolin induced cAMP levels (CB1R [7]; [13]): small decrease
Effect on agonist actions on ERK1/2 phosphorylation [8, 9]: negligible except for the negative modulation of the ACEA effect on ERK1/2 phosphorylation
Effect on ERK1/2 phosphorylation [8, 10]: negative cross-talk was still evident
EC50 (TRPV2): 1700 nM

Source: article PMC6021502, “Cannabigerol Action at Cannabinoid CB1 and CB2 Receptors and at CB1–CB2 Heteroreceptor Complexes” (Frontiers in Pharmacology, 2018)
